Experimental data from PubChem BioAssay AID2060486 (Molecular Pharmacology Branch, DTP, NCI, 2025).
Where “and” joins values, the source holds several entries; their conditions need not be identical. Identical values can stand only once.

Tested on: IGROV1 complex spheroids (HUVEC, MSC), viability % test/control
Assay: Anticancer human tumor IGROV1 cell line growth inhibition [GQUAD];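 note: spheroids exposed to compounds for 7 days before readout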
Details: for viability, T/C: stronger effect = lower value
Excerpt: DNA G-quadruplex Stabilizer Agents in Combinations in Complex Spheroids
A high-throughput screen of multi-cell type tumor spheroids was designed to identify active combinations of DNA G-quadruplex stabilizer agents and targeted small molecules. Complex spheroids include a stromal component modeled by human endothelial cells (HUVEC) and fibroblasts modeled by human mesenchymal stem cells (MSCs). The concentration ranges selected for each drug and investigational agent were based upon clinically achievable concentrations if the clinical Cmax of the agent was known.
Compounds. The drugs and investigational agents: pidnarulex (CX-5461; NSC782164), APTO-253 (NSC789042), BRACO-19 (NSC847499), peposertib (NSC802822), ceralasertib (NSC780249), elimusertib (NSC800525), camonsertib (NSC841442), AZD-1390 (NSC803789), olaparib (NSC753686), talazoparib (NSC767125), ART-558 (NSC835418), sotorasib (NSC818433), MRTX-1133 (NSC836407), SN-38 (NSC673596), topotecan (NSC609699), etoposide (NSC141540), doxorubicin (NSC123127), gemcitabine (NSC613327), 5-fluorouracil (NSC19893), paclitaxel (NSC125973), vemurafenib (NSC761431), panobinostat (NSC761190), R-306465 (JNJ-16241199; NSC773264), adavosertib (NSC754352), TP-3654 (NSC805149), carboplatin (NSC241240), KSQ-4279 (NSC840948), and staurosporine (NSC755774) were obtained from the National Cancer Institute (NCI) Developmental Therapeutics Program Chemical Repository (34). The FDA-approved anticancer drug set is available from the NCI Developmental Therapeutics Program. […] The stock solutions were prepared in dimethyl sulfoxide (DMSO, Sigma-Aldrich, St. Louis, MO, cat. D2650) at 800-fold the tested concentration and stored at -70 degrees C prior to their use. All drugs and investigational agents were tested over a range starting from a high concentration at or near the clinical Cmax and decreasing in half-log increments. If the clinical Cmax for an agent had not been determined, the highest concentration tested was 10 microM.
2.3 Cell Culture. All cells were maintained in an incubator at 37 degrees C and 5% CO2 with 95% humidity. The PDC lines were cultured according to standard operating procedures established by the NCI PDMR. All PDCs were thawed and cultured in Matrigel-coated flasks prepared with a working solution of 1X Ham's F-12 nutrient mix, without supplementation (Invitrogen, cat. 11765054), 100 U/mL penicillin-streptomycin (Invitrogen, cat. 15140122), and 2.5% Matrigel (Corning Inc., cat. 354248) for the first three passages. The 857933-349-R-J2-PDC line was cultured in 6C/Colon 1B media, which includes advanced DMEM/F-12 (Thermo Fisher Scientific, cat. 12634028), 10 mM HEPES (Thermo Fisher Scientific, cat. 15630080), 1X GlutaMAX supplement (Thermo Fisher Scientific, cat. 35050061), 0.1 mg/mL primocin (InvivoGen, cat. ant-pm-2), 10% defined fetal bovine serum, heat inactivated (HyClone Laboratories Inc., cat. SH30070.03HI), 50% L-WRN conditioned media (ATCC, cat. CRL-3276), 1.25 mM N-Acetyl-L-cysteine (Sigma-Aldrich, cat. A9165), 10 mM nicotinamide (Sigma-Aldrich, cat. N0636), 1X B-27 supplement (Thermo Fisher Scientific, cat. 17504044), 1X N-2 supplement (Thermo Fisher Scientific, cat. 17502048), 10 microM Y-27632 dihydrochloride (Tocris Bioscience, cat. 1254), and 50 ng/mL human EGF recombinant protein (Thermo Fisher Scientific, cat. PHG0311). The 485176-168-R4-J1-PDC line was cultured in Panc media, which includes all 6C/Colon 1B media components plus 100 ng/mL human FGF-10 (Thermo Fisher Scientific, cat. 100-26), 500 nM SB-431542 (Selleckchem, cat. S1067), and gastrin (Tocris, cat. 3006).
[…]

For `CC1COCCN1c1cc(C2(O)CC3CCC(C2)O3)c2cnn(-c3ccn[nH]3)c2n1` (stereo not given), the viability, T/C (compound 0.0316 µM) was 51.5% and 57.1% and 50.6%, the viability, T/C (compound 0.1 µM) was 16.8% and 21.7% and 20.7% and the viability, T/C (compound 0.316 µM) was 7.14% and 8.09% and 7.26%. The viability, T/C (compound 1 µM) was 4.84% and 5.33% and 5.42%, the viability, T/C (compound 3.16 µM) was 2.68% and 4.74% and 3.78% and the viability, T/C (compound 10 µM) was 1.72% and 2.09% and 2.04%. The IC50 (curve of compound) was 32.6 nM and 39.6 nM and 32.3 nM.

For `CC(=O)O[C@H]1C(=O)[C@@]2(C)[C@H]([C@H](OC(=O)c3ccccc3)[C@]3(O)C[C@H](OC(=O)[C@H](O)[C@@H](NC(=O)c4ccccc4)c4ccccc4)C(C)=C1C3(C)C)[C@]1(OC(C)=O)CO[C@@H]1C[C@@H]2O` + CN(C)c1ccc(Nc2c3ccc(NC(=O)CCN4CCCC4)cc3nc3cc(NC(=O)CCN4CCCC4)ccc23)cc1, the IC50 (curve of first compound, second compound 0.0316 µM) was under 31.6 nM, the IC50 (curve of first compound, second compound 0.1 µM) was under 31.6 nM and the IC50 (curve of first compound, second compound 0.316 µM) was under 31.6 nM. For the same compound, the IC50 (curve of first compound, second compound 1 µM) was under 31.6 nM, the IC50 (curve of first compound, second compound 3.16 µM) was under 31.6 nM and the IC50 (curve of first compound, second compound 10 µM) was under 31.6 nM. For the same compound, the viability, T/C (second compound 0.0316 µM, first compound 0.0316 µM) was 7.64%, the viability, T/C (second compound 0.0316 µM, first compound 0.1 µM) was 6.24% and the viability, T/C (second compound 0.0316 µM, first compound 0.316 µM) was 6.32%. The viability, T/C (second compound 0.0316 µM, first compound 1 µM) was 5.33%, the viability, T/C (second compound 0.0316 µM, first compound 3.16 µM) was 5% and the viability, T/C (second compound 0.0316 µM, first compound 10 µM) was 6.24%. For the same compound, the viability, T/C (second compound 0.1 µM, first compound 0.0316 µM) was 7.68%, the viability, T/C (second compound 0.1 µM, first compound 0.1 µM) was 5.09% and the viability, T/C (second compound 0.1 µM, first compound 0.316 µM) was 5.96%. The viability, T/C (second compound 0.1 µM, first compound 1 µM) was 5.48%, the viability, T/C (second compound 0.1 µM, first compound 3.16 µM) was 6.36% and the viability, T/C (second compound 0.1 µM, first compound 10 µM) was 6.3%. The viability, T/C (second compound 0.316 µM, first compound 0.0316 µM) was 8.36%, the viability, T/C (second compound 0.316 µM, first compound 0.1 µM) was 5.82% and the viability, T/C (second compound 0.316 µM, first compound 0.316 µM) was 5.8%. It also gave a viability, T/C (second compound 0.316 µM, first compound 1 µM) of 5.16%, a viability, T/C (second compound 0.316 µM, first compound 3.16 µM) of 5.67% and a viability, T/C (second compound 0.316 µM, first compound 10 µM) of 6.87%. It also gave a viability, T/C (second compound 1 µM, first compound 0.0316 µM) of 7.67%, a viability, T/C (second compound 1 µM, first compound 0.1 µM) of 6.92% and a viability, T/C (second compound 1 µM, first compound 0.316 µM) of 6.05%. For the same compound, the viability, T/C (second compound 1 µM, first compound 1 µM) was 5.19%, the viability, T/C (second compound 1 µM, first compound 3.16 µM) was 6.15% and the viability, T/C (second compound 1 µM, first compound 10 µM) was 5.74%. For the same compound, the viability, T/C (second compound 3.16 µM, first compound 0.0316 µM) was 6.2%, the viability, T/C (second compound 3.16 µM, first compound 0.1 µM) was 8.18% and the viability, T/C (second compound 3.16 µM, first compound 0.316 µM) was 6.89%. The viability, T/C (second compound 3.16 µM, first compound 1 µM) was 5.22%, the viability, T/C (second compound 3.16 µM, first compound 3.16 µM) was 6.1% and the viability, T/C (second compound 3.16 µM, first compound 10 µM) was 5.7%. For the same compound, the viability, T/C (second compound 10 µM, first compound 0.0316 µM) was 7.12%, the viability, T/C (second compound 10 µM, first compound 0.1 µM) was 6.03% and the viability, T/C (second compound 10 µM, first compound 0.316 µM) was 5.99%. The viability, T/C (second compound 10 µM, first compound 1 µM) was 4.33%, the viability, T/C (second compound 10 µM, first compound 3.16 µM) was 4.7% and the viability, T/C (second compound 10 µM, first compound 10 µM) was 4.57%.

For `COc1ccc([C@@H](O)c2cc(-c3ncnc4cc(N5CCOCC5)ccc34)c(F)cc2Cl)nn1`, the viability, T/C (compound 0.0316 µM) was 98.6% and 95.7% and 99.4%, the viability, T/C (compound 0.1 µM) was 88.4% and 81.6% and 65.6% and the viability, T/C (compound 0.316 µM) was 91.1% and 92.8% and 94.7%. The viability, T/C (compound 1 µM) was 50.6% and 64.3% and 60.5%, the viability, T/C (compound 3.16 µM) was 20.1% and 18% and 17.6% and the viability, T/C (compound 10 µM) was 6.24% and 5.2% and 5.02%. The IC50 (curve of compound) was 1100 nM and 1440 nM and 1360 nM.

With `O=C(c1cc(Cc2n[nH]c(=O)c3ccccc23)ccc1F)N1CCN(C(=O)C2CC2)CC1` the viability, T/C (compound 0.0316 µM) was 87.6% and 92% and 100%, the viability, T/C (compound 0.1 µM) was 91.8% and 91.9% and 84.2% and the viability, T/C (compound 0.316 µM) was 93.4% and 85.7% and 102%. For the same compound, the viability, T/C (compound 1 µM) was 77.6% and 81.8% and 83.7%, the viability, T/C (compound 3.16 µM) was 63.9% and 52.6% and 40% and the viability, T/C (compound 10 µM) was 26.5% and 25.6% and 20.9%. For the same compound, the IC50 (curve of compound) was 4760 nM and 3580 nM and 2430 nM.

For `C=CC(=O)N1CCN(c2nc(=O)n(-c3c(C)ccnc3C(C)C)c3nc(-c4c(O)cccc4F)c(F)cc23)C(C)C1` (stereo not given), the viability, T/C (compound 0.0316 µM) was 102% and 105% and 117%, the viability, T/C (compound 0.1 µM) was 95.2% and 95.3% and 106% and the viability, T/C (compound 0.316 µM) was 113% and 105% and 110%. The viability, T/C (compound 1 µM) was 93% and 104% and 122%, the viability, T/C (compound 3.16 µM) was 79.5% and 98.5% and 104% and the viability, T/C (compound 10 µM) was 82.3% and 101% and 92%. The IC50 (curve of compound) was over 10000 nM.
